Key:
[1] = tested on: ROS in BV-2 cells; test: Hypoxia-induced ROS generation (DCF), BV-2; format: cell-based, murine
[2] = tested on: MDA in BV-2 cells; test: Lipid peroxidation (MDA) under hypoxia, BV-2; format: cell-based, murine; settings: hypoxia 30 min, BBD 1, 10, 20 μM
[3] = tested on: JNK; test: Western blot of hypoxia-induced signaling, BV-2: JNK; format: cell-based, murine; settings: BV-2 cells, 10 min hypoxia, BBD 20 μM
Protocol: (§1) On the day of experiment, culture media were replaced with glucose-free DMEM, then, gassed with 85% N2, 10% H2, and 5% CO2 for various time periods in the absence or presence of various doses of BBD.
(§2) Samples containing 25 μg of protein were separated on 12.5% (w/v) sodium dodecyl sulfate-polyacrylamide gels, and transferred to immobilon polyvinylidenedifluoride membranes (Millipore, Bedford, USA). The membranes were incubated for 2 h with 5% (w/v) dry skim milk in TBST buffer to block non-specific binding, then ERK, p38 JNK, AKT-1, COX-2, caspase-3, β-actin proteins for neuron cells were detected by a chemiluminescence detection system according to the manufacturer’s instructions (ECL, Amersham, Berkshire, UK).

[4] = tested on: ERK; test: Western blot of hypoxia-induced signaling, BV-2: ERK; format: cell-based, murine; settings: BV-2 cells, 10 min hypoxia, BBD 20 μM
Protocol: as §1, §2

[5] = tested on: IL-6; test: Hypoxia-induced IL-6 production (ELISA), BV-2; format: cell-based, murine
Protocol: as §1
Cytokines (IL-1β, IL-6) and PGE2 were measured using ELISA kits (R&D, Minneapolis, MN, USA). The absorbance at 450 nm was determined using a microplate reader (spectraMAX 340).

[6] = tested on: p38; test: Western blot of hypoxia-induced signaling, BV-2: p38; format: cell-based, murine; settings: BV-2 cells, 10 min hypoxia, BBD 20 μM
Protocol: as §1, §2

[7] = tested on: COX-2; test: Western blot of hypoxia-induced signaling, BV-2: COX-2; format: cell-based, murine; settings: BV-2 cells, 10 min hypoxia, BBD 20 μM
Protocol: as §1, §2

[8] = tested on: BV-2 cells; test: MTT cell viability under hypoxia, BV-2; format: cell-based, murine; settings: hypoxia 30 min, BBD 1, 10, 20 μM
Protocol: (§3) Murine BV-2 microglial cell line was maintained in DMEM supplemented with 10% (v/v) FBS, 100 U/ml penicillin and 100 μg/ml streptomycin (P/S) in a humidified incubator under 5% CO2 at 37°C. Rat pheochromacytoma PC12 cell line was maintained in DMEM supplemented with 10% FBS, 5% horse serum, P/S at 37°C under 5% CO2. Confluent cultures were passaged by trypsinization. In all experiments, the cells were treated with BBD immediately before hypoxia. BBD was dissolved in DMSO. The final concentration of DMSO added to cells never exceeded 0.1% (v/v).
as §1
Cell viability was measured using blue formazan that was metabolized from colorless 3-(4,5-dimethyl-thiazol-2-yl)-2,5-diphenyl tetrazolium bromide (MTT) by mitochondrial dehydrogenases, which are active only in live cells. PC12 or BV2 cells were preincubated in 24-well plates at a density of 5 × 10^5 cells per well for 24 h. […] One hour later, 200 μl of solubilization solution were added to each well and absorption values read at 540 nm on microtiter plate reader (spectraMAX 340, Molecular Devices, Sunnyvale, CA, USA). Data were expressed as the mean percent of viable cells vs. control.

[9] = tested on: BV-2 cells; test: LDH release under hypoxia, BV-2; format: cell-based, murine; settings: BBD 1, 10, 20 μM
Protocol: as §3, §1
Cytotoxicity was determined by measuring the release of LDH. PC12 or BV-2 cells treated with various concentrations of BBD were stressed with hypoxia for one hour and the supernatant was then assayed for LDH activity. An absorbance was read at 490/630 nm using a spectraMAX 340 microtiter plate reader. Data were expressed as the mean percent of viable cells vs. the control.

[10] = tested on: COX-2; test: Western blot of hypoxia-induced signaling, PC12: COX-2; format: cell-based, rat; settings: PC12 cells, 10 min hypoxia (Figure 5C), BBD 20 μM
Protocol: as §1, §2

[11] = tested on: JNK; test: Western blot of hypoxia-induced signaling, PC12: JNK; format: cell-based, rat; settings: PC12 cells, 10 min hypoxia (Figure 5C), BBD 20 μM
Protocol: as §1, §2

[12] = tested on: ERK; test: Western blot of hypoxia-induced signaling, PC12: ERK; format: cell-based, rat; settings: PC12 cells, 10 min hypoxia (Figure 5C), BBD 20 μM
Protocol: as §1, §2

[13] = tested on: MDA in PC12 cells; test: Lipid peroxidation (MDA) under hypoxia, PC12; format: cell-based, rat; settings: hypoxia 30 min, BBD 1, 10, 20 μM
From the text: as §1
Lipid peroxidation is quantified by measuring malondialdehyde (MDA) of PC12 cells and brain tissue of SD rats by lipid peroxidation (LPO) assay kit (Cayman). This kit works on the principle of condensation of one molecule of either MDA or 4-hydroxyalkenals with two molecules of N-methyl-2-phenylindole to yield a stable chromophore. MDA levels were assayed by measuring the amount expressed in 5 × 10^5 cells of PC12 and SD brain tissue, and the absorbance at 500 nm was determined using a microplate reader (spectraMAX 340).

[14] = PAMPA-BBB membrane permeability assay
Protocol: The blood–brain barrier limits drug access into the brain, due to tight junctions, membrane drug transporters, and unique lipid composition. Porcine whole-brain lipid is successfully used in passive permeability test for CNS drugs.
The parallel artificial membrane permeation assay (PAMPA) was carried out in a sandwich-like 96-well PAMPA plate formed by a top filter plate containing acceptor wells and a bottom plate containing donor wells. Each composite well was divided into two chambers: 300 μl of donor solution (test article or QC standards) at the bottom and 200 μl of acceptor buffer (PBS buffer containing 5% DMSO) at the top, separated by a polyvinylidene fluoride (PVDF, 0.45 μm pore size) membrane, coated with 4 μl of 20 mg/ml porcine polar brain lipid (PBL) in n-dodecane. […] The final DMSO concentration in working stock solution is 5%. Each compound was performed in triplicate. The test compound diffused from the donor well through the lipid membrane and into the acceptor well. The sandwich plate was placed with the plate lid and incubated at room temperature for approximately 18 h. After reaching diffusion equilibration, the PAMPA sandwich plate was disassembled and the concentration of drug in the acceptor, the donor, and the reference wells was determined using a TECAN microplate reader (Durham, NC, USA).

[15] = BV-2 cells, hypoxia 30 min, BBD 1, 10, 20 μM

COc1cccc(CC(CO)C(CO)Cc2cccc(OC)c2)c1 (centres unmarked) [BBD, 3-bis (3-methoxybenzyl) butane-1,4-diol]
hypoxia-induced ROS accumulation (DCF signal) [1, 15]: decreasing the ROS accumulation | inhibition of hypoxia-induced ROS production ([1]; hypoxia, cell line and concentration not stated): 40-50% | hypoxia-induced increase in MDA level [2]: suppressed | reduced expression of JNK [3]: 88 ± 6% | reduced expression of ERK [4]: 10 ± 7% | hypoxia-induced IL-6 production [5, 15]: dose-dependently decreased | inhibition of hypoxia-induced IL-6 production ([5]; hypoxia, concentration not given): 40-50% | reduced expression of p38 [6]: -8 ± 10% | reduced expression of COX-2 [7]: 13 ± 7% | cell viability (MTT) under hypoxia [8]: increased | hypoxia-induced LDH release [9]: reduced | suppressed hypoxia induced expression of COX-2 [10]: 75 ± 11% | suppressed hypoxia induced expression of JNK [11]: 86 ± 5% | suppressed hypoxia induced expression of ERK [12]: 9 ± 7% | hypoxia-induced increase in MDA level [13]: suppressed | Classification ([14]; PAMPA-BBB predicted BBB permeation class): BBB+ (BBB + compound (high BBB permeation predicted): Pe (10^-6 cm s^-1) > 4.0) | Papp at 100 μg/ml ([14]; pig, PAMPA, pH 7.4): 20.9 ± 3.05 ×10⁻⁶ cm/s
